This note sets out measurements from article PMC3612826, “Structural-Functional Analysis of 2,1,3-Benzoxadiazoles and Their N-oxides As HIV-1 Integrase Inhibitors” (Acta Naturae, 2013).

The target of assay [1] is recombinant HIV-1 IN (Human immunodeficiency virus type 1 group M subtype B, UniProt P12497). The experiment in a line: biochemical. Type of assay: biochemical.
The target in assay [2] is wild-type HIV-1 IN (Human immunodeficiency virus type 1 group M subtype B, UniProt P12497). The assay can be described thus: biochemical. Type of assay: biochemical.

Take `[O-][n+]1onc2ccccc21` [Compound 1, unsubstituted BFX]: in assay [1], the IC50 (usually the point on the concentration scale where inhibition reaches its midpoint) is greater than 1000 µM and the “Inhibitory potential, 3'-processing” value is “exhibited no inhibitory potential”. In addition, in assay [2], the IC50 is greater than 1000 µM and the “Inhibitory potential, strand transfer” value was “exhibited no inhibitory potential”.

In the case of `O=[N+]([O-])c1cc([N+](=O)[O-])c2no[n+]([O-])c2c1-[n+]1ccccc1` [Compound 24], the IC50 was 75 ± 15 µM in assay [1] and 80 ± 20 µM in assay [2].
